Time data for 7 molecules are collected here from ChEMBL document CHEMBL3045222, “Synthesis of novel benzimidazole derivatives: as potent analgesic agent” (2013).

Type in all cases: functional
For experiment [1], the system named is Rattus norvegicus. Kind of experiment: Analgesic activity in Rattus norvegicus (rat) assessed as time taken to withdraw tail in response to heat stress at 50 mg/kg, po after 60 min by tail flick method based analgesiometer analysis (reference value: 6.5 +/-0.22 secs). (In hot-plate and tail-flick tests a longer latency is read as antinociception.)
In experiment [2] the test system is Rattus norvegicus. Nature of the experiment: Analgesic activity in Rattus norvegicus (rat) assessed as time taken to withdraw tail in response to heat stress at 50 mg/kg, po after 90 min by tail flick method based analgesiometer analysis (reference value: 6.00 +/-0.36 secs).
The subject of experiment [3] is Rattus norvegicus. Nature of the experiment: Analgesic activity in Rattus norvegicus (rat) assessed as time taken to withdraw tail in response to heat stress at 50 mg/kg, po after 30 min by tail flick method based analgesiometer analysis (reference value: 5.50 +/-0.43 secs).
The test system of experiment [4] is Rattus norvegicus. Kind of experiment: Analgesic activity in Rattus norvegicus (rat) assessed as time taken to withdraw tail in response to heat stress at 50 mg/kg, po after 120 min by tail flick method based analgesiometer analysis (reference value: 5.16 +/-0.31 secs).

With `COc1ccc2nc(-c3c(O)ccc4ccccc34)n(C)c2c1`, the Time turned out to be 10.33 s with Rattus norvegicus [1], 8.5 s in the experiment with Rattus norvegicus [2], 10.66 s in the experiment with Rattus norvegicus [3] and 6.83 s with Rattus norvegicus [4].

With `CCCCn1c(-c2c(O)ccc3ccccc23)nc2ccc(OC)cc21`, the Time with Rattus norvegicus [1] was found to be 9.33 s; in the experiment on Rattus norvegicus [2] it was 7.66 s; in the experiment on Rattus norvegicus [3], 8.66 s; in the experiment with Rattus norvegicus [4] it was 6.66 s.

For `CCCCn1c(-c2c(O)ccc3ccccc23)nc2ccccc21`, the Time in the experiment with Rattus norvegicus [1] is given as 10.5 s; in the experiment with Rattus norvegicus [2], 9.66 s; in the experiment on Rattus norvegicus [3] it was 10.66 s; in the experiment with Rattus norvegicus [4], 6.83 s.

For the molecule `Cn1c(-c2c(O)ccc3ccccc23)nc2ccccc21`, the Time in the experiment on Rattus norvegicus [1] was 7 s; in the experiment on Rattus norvegicus [2], 6 s; in the experiment on Rattus norvegicus [3], 6.5 s; in the experiment on Rattus norvegicus [4], 5.16 s.

In the case of `CCCCn1c(-c2c(O)ccc3ccccc23)nc2ccc([N+](=O)[O-])cc21`, the Time in the experiment on Rattus norvegicus [1] was 6.5 s; with Rattus norvegicus [2], 6 s; in the experiment with Rattus norvegicus [3] it was 6.66 s; with Rattus norvegicus [4], 4.83 s.

In the case of `O=C(O)Cc1ccccc1Nc1c(Cl)cccc1Cl` [DICLOFENAC], the Time in the experiment with Rattus norvegicus [1] stood at 11.66 s; with Rattus norvegicus [2], 10 s; in the experiment on Rattus norvegicus [3], 10.83 s; in the experiment with Rattus norvegicus [4], 7 s.

Regarding `Cn1c(-c2c(O)ccc3ccccc23)nc2ccc([N+](=O)[O-])cc21`, the Time was found to be 11.5 s in the experiment on Rattus norvegicus [1], 6.83 s in the experiment on Rattus norvegicus [2], 10.5 s in the experiment with Rattus norvegicus [3] and 7 s with Rattus norvegicus [4].
